Measured values published in the Kinase Knowledgebase extract (Sharma et al. 2016).

biological target: PIK3CG (human) (UniProt P48736); assay: Assessment of PIK3CG Kinase Activity
Sequence (P48736 whole entry, looked up): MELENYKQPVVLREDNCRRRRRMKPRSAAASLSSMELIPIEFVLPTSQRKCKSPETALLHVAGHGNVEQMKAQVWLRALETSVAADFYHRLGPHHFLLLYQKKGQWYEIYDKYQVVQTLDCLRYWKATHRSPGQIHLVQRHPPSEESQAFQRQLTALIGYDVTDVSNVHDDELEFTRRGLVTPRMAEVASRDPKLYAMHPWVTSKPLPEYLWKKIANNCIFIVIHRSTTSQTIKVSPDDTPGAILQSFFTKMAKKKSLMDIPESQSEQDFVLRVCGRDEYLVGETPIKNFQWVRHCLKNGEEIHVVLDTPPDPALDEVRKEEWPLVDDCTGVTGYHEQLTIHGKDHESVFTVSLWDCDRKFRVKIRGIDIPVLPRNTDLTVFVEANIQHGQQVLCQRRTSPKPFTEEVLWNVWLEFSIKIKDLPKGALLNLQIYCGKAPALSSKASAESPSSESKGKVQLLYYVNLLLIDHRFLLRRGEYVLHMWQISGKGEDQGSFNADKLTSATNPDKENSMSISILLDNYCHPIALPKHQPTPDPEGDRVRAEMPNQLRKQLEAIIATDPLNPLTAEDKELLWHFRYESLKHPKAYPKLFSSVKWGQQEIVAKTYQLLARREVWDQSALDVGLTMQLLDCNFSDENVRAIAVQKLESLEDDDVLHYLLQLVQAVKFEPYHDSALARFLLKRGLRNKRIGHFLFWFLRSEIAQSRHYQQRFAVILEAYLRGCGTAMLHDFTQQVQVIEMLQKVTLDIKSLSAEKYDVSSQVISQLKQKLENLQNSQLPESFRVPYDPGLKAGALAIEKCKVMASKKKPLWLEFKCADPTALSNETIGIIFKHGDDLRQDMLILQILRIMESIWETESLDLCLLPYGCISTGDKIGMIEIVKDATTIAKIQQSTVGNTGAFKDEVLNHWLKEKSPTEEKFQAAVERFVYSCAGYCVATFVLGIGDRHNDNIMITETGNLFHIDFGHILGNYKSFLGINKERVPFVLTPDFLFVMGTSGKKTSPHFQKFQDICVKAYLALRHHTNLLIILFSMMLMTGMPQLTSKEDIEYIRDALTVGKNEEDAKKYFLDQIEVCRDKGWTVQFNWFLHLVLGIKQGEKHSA

How did the IC50 turn out when `CC(C)N1CC(=O)N(C)c2cnc(Nc3cc(NC(=O)c4ccsc4)cc(S(C)(=O)=O)c3)nc21` was run?
The IC50 was less than 800 nM.

Which IC50 does the source give for `CC(C)N1CC(=O)N(C)c2cnc(Nc3cc(NC(=O)N[C@H]4CCN(C5CCCC5)C4)cc(S(C)(=O)=O)c3)nc21` here?
Its IC50 is less than 800 nM.

Which IC50 does the source give for `CC(C)N1CC(=O)N(C)c2cnc(Nc3cc(NC(=O)Cc4ccc(Cl)nc4)cc(S(C)(=O)=O)c3)nc21` here?
Its IC50 is less than 800 nM.

With `CC(C)N1CC(=O)N(C)c2cnc(Nc3cc(CO)cc(S(C)(=O)=O)c3)nc21` as the molecule, how does the IC50 read?
Its IC50 is less than 800 nM.

Which IC50 does the source give for `CC(C)N1CC(=O)N(C)c2cnc(Nc3cc(NC(=O)NC[C@@H]4CCNC4)cc(S(C)(=O)=O)c3)nc21` here?
The IC50 was less than 800 nM.

`CC(C)N1CC(=O)N(C)c2cnc(Nc3cc(NC(=O)NCc4cc(C5CC5)[nH]n4)cc(S(C)(=O)=O)c3)nc21` was tested. Which IC50 did it give?
The IC50 was less than 800 nM.

Which IC50 does the source give for `CC(C)N1CC(=O)N(C)c2cnc(Nc3cc(NC(=O)CCC4CCCC4)cc(S(C)(=O)=O)c3)nc21` here?
Its IC50 is less than 800 nM.

With `CCS(=O)(=O)c1cccc(Nc2ncc3c(n2)N(C2CCCCC2)CC(=O)N3C)c1` as the molecule, how does the IC50 read?
Its IC50 is less than 800 nM.

Which IC50 does the source give for `CC(C)N1CC(=O)N(C)c2cnc(Nc3cc(N4CCNC4=O)cc(S(C)(=O)=O)c3)nc21` here?
Its IC50 is less than 800 nM.

Which IC50 does the source give for `CC(C)N1CC(=O)N(C)c2cnc(Nc3cccc(S(=O)(=O)CCN4CCN(C)CC4)c3)nc21` here?
The IC50 was less than 800 nM.

With `CC(C)N1CC(=O)N(C)c2cnc(Nc3cc(NC(=O)CC4CCCC4)cc(S(C)(=O)=O)c3)nc21` as the molecule, how does the IC50 read?
The IC50 was less than 800 nM.

Which IC50 does the source give for `CC(C)N1CC(=O)N(C)c2cnc(Nc3cc(C(=O)NCCc4ccncc4)cc(S(C)(=O)=O)c3)nc21` here?
Its IC50 is less than 800 nM.

`Cc1ccccc1CC(=O)Nc1cc(Nc2ncc3c(n2)N(C(C)C)CC(=O)N3C)cc(S(C)(=O)=O)c1` was tested. Which IC50 did it give?
The IC50 was less than 800 nM.

For `CC(C)N1CC(=O)N(C)c2cnc(Nc3cc(N(C)C(=O)Cc4ccccc4)cc(S(C)(=O)=O)c3)nc21`, which IC50 is on record?
The IC50 was less than 800 nM.

How did the IC50 turn out when `CC(C)N1CC(=O)N(C)c2cnc(Nc3cc(N(C)C(=O)Nc4ccccc4)cc(S(C)(=O)=O)c3)nc21` was run?
The IC50 was less than 800 nM.

How did the IC50 turn out when `CC(C)N1CC(=O)N(C)c2cnc(Nc3cc(NC(=O)N[C@@H]4CCN(C5CCCC5)C4)cc(NS(C)(=O)=O)c3)nc21` was run?
The IC50 was less than 800 nM.
